Experimental data published in US12435059B2, “AMP-activated protein kinase inhibitors and methods of making and using the same” (The Regents of the University of Colorado, priority 2019, dated 2025).
Read-outs that look alike come from different tables or passages of the source. One block for each molecule: values may come before it.

How the values were obtained:
[1] = test system: K562 cells; assay: MTS cell viability assay in K562 cells; format: cell-based; conditions: Homo sapiens; K562, RPMI-1640; Table 2 head prints 24 h, method and FIG. 3A legend 72 hours
Experimental: (§1) The cells were incubated with inhibitors for 24 hours, before the plates were equilibrated to room temperature and 100 μL CellTiter-Glo reagent was added. […] Luminescent signal was plotted against the inhibitor log-dose and evaluated by a non-linear regression to determine half-maximal effect concentration (EC50) values, where possible.
An MTS assay was utilized to assess the effect of inhibitors on K562 viability.

[2] = target: T1, AMPKα1 (Homo sapiens (Human), UniProt Q13131); assay: LANCE Eu TR-FRET recombinant kinase assay, AMPK(α1); format: biochemical
Experimental: (§2) Assays were performed at 25° C. in a reaction mixture consisting of 2.5 μL serially diluted inhibitor solution, 2.5 μL kinase, 2.5 μL ATP and 2.5 μL substrate. Reagents were incubated for 1 hr before the reaction was halted through the addition of EDTA (10 mM) after which Eu anti-phospho-CREB (Ser133) antibody (PerkinElmer) was added at a final concentration of 2 nM for 1 hr. […] (n=3)).
Target sequence in this assay (Q13131 whole entry, looked up): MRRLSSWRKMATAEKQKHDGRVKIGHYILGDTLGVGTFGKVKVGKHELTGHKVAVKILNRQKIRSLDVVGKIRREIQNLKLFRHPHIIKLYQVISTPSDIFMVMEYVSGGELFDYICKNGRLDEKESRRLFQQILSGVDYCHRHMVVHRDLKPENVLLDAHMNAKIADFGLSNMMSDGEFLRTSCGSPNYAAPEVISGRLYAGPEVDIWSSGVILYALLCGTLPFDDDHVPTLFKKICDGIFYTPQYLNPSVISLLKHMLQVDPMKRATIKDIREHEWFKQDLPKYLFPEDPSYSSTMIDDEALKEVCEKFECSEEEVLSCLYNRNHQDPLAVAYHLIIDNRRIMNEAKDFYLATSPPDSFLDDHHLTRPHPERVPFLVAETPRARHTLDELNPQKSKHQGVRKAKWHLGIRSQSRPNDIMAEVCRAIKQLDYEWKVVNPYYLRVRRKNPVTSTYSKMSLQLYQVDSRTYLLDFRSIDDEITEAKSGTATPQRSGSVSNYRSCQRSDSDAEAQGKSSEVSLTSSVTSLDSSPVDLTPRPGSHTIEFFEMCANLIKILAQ
Target sequence in this assay (Q9Y478 whole entry partner, looked up): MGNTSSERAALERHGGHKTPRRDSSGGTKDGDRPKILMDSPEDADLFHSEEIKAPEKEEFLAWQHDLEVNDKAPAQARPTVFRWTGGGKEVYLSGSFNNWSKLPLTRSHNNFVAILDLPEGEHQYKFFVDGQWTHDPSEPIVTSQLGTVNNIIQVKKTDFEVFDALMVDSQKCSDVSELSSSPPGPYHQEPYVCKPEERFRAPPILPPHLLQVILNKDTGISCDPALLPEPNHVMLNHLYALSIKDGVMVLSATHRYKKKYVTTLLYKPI
Target sequence in this assay (P54619 whole entry partner, looked up): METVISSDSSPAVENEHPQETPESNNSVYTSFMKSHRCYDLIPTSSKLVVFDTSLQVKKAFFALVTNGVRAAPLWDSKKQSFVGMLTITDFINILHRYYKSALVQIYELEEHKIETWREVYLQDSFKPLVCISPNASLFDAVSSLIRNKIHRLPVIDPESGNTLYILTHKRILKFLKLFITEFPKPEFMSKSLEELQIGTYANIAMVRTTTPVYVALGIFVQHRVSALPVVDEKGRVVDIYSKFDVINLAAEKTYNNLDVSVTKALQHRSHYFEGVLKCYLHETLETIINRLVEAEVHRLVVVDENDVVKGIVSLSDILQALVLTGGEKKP

[3] = test system: K562 cells; assay: CellTiter-Glo cell viability assay in K562 cells (glucose-free media); format: cell-based; conditions: Homo sapiens, read-out: EC50 CellTiter Glo 24 h
Experimental: as §1
(§3) In order to increase the reliance of the cells on AMPK function, assays were needed that could be performed under glucose-free conditions. Therefore in order to elucidate the mechanism of action of the AMPK inhibitors, a CellTiter-Glo cell viability assay (FIG. 3B), which provide a readout proportional to ATP concentration, and thus, cellular viability, as well as a CellTox green cellular toxicity assay (FIG. 3C and FIG. 3D), which contain a dye that fluoresces upon DNA-binding in cells with impraied membrane integrity due to cytotoxicity were performed in K562 cells grown in glucose-free media. The results are summarized in Table 2 (values are the mean±S.D. (n=3)).

[4] = test system: K562 cells; assay: CellTox green cellular toxicity assay in K562 cells (glucose-free media); format: cell-based; conditions: for EC50: Homo sapiens
From the text: Fluorescence was plotted against inhibitor log-dose and evaluated by a non-linear regression to determine half-maximal effect concentration (EC50) values, where possible.
as §3

[5] = test system: cellular AMPK; assay: p-ACC(Ser79) ELISA in K562 cell lysates (glucose-free media, 2-DG); format: cell-based; conditions: K562, glucose-free media, 2-DG 12 mM, compound 5 μM single dose; relative to DMSO control
Experimental: FIGS. 2A and 2B are a series of graphs showing the effects of compounds of the present disclosure on cellular levels of p-ACC(Ser79) in K562 cells. FIG. 2A Quantitative ELISA determination of p-ACC(Ser79) levels in K562 lysates (1.0 mg mL^−1 total protein) following growth in glucose-free media for 24 h, 2-DG (12 mM) treatment for 1 h followed by treatment with inhibitor compounds at 5.0 μM for 2 h. Relative p-ACC levels are reported as a percentage of levels resultant from DMSO control treatment. […] Cells were collected, washed with PBS and lysed on ice in lysis buffer containing 1% Triton X (Cell Signaling). Lysates were someated (1×5 seconds) and centrifuged for 10 minutes at 10,000 rpm and 4° C., and the protein concentration in supernatants was determined by Lowry assay. Lysates were diluted with ELISA PathScan® sample diluent to a final volume of 100 μL and protein concentration of 1.0 mg/ml prior to use. The concentration of p-ACC (Ser79) was determined using an enzyme-linked immunosorbent assay according to recommended protocol (Cell Signaling, ELISA PathScan® phospho-Acetyl-CoA Carboxylase (Ser79)) and expressed as a relative percentage of the DMSO control.
The AMPK substrate ACC is used as a biomarker for the relative activity of AMPK, and the levels of p-ACC(Ser79) were measured by ELISA in the absence or presence of the compounds to determine the compounds' effects on cellular AMPK activity. The presence of total AMPK, p-AMPK, total ACC, and p-ACC was measured by Western blot in a panel of leukemic cell lines grown in glucoe competent or glucose-free media. […] The cell lysates from K562 cells grown in glucose-free media in the presence 2-DG and treated with compounds of the present disclosure were analyzed by the p-ACC(Ser79) ELISA to determine the effect of the compounds on cellular AMPK activity.

[6] = target: AMPK(α2) (Homo sapiens (Human), UniProt P54646); assay: LANCE Eu TR-FRET recombinant kinase assay, AMPK(α2); format: biochemical
Experimental: as §2

[7] = target: KDR (Homo sapiens (Human), UniProt P35968); assay: LanthaScreen Eu TR-FRET KDR competitive binding assay; conditions: read-out: IC50 (nM) KDR; mean±S.D. (n=3); competitive binding
[8] = target: T1, AMPKα1; conditions: purified AMPK protein; read-out: AMPKα1 IC50, 32P radioactivity assay; cited from earlier work
Target sequence in this assay (Q13131 whole entry): as the sequence (Q13131 whole entry, looked up) above
Target sequence in this assay (Q9Y478 whole entry partner): as the sequence (Q9Y478 whole entry partner, looked up) above
Target sequence in this assay (P54619 whole entry partner): as the sequence (P54619 whole entry partner, looked up) above

[9] = target: 468 kinases (Homo sapiens, UniProt Q14004); assay: biochemical; format: binding; conditions: read-out: % Inhibition @ 100 nM, CDC2L5
[10] = target: BTK (Homo sapiens (Human), UniProt Q06187); assay: Kinome binding analysis at 100 nM, BTK
[11] = read-out: EC50 CellTox Green 48 h, 48 h

Sequence of BTK (Q06187 whole entry): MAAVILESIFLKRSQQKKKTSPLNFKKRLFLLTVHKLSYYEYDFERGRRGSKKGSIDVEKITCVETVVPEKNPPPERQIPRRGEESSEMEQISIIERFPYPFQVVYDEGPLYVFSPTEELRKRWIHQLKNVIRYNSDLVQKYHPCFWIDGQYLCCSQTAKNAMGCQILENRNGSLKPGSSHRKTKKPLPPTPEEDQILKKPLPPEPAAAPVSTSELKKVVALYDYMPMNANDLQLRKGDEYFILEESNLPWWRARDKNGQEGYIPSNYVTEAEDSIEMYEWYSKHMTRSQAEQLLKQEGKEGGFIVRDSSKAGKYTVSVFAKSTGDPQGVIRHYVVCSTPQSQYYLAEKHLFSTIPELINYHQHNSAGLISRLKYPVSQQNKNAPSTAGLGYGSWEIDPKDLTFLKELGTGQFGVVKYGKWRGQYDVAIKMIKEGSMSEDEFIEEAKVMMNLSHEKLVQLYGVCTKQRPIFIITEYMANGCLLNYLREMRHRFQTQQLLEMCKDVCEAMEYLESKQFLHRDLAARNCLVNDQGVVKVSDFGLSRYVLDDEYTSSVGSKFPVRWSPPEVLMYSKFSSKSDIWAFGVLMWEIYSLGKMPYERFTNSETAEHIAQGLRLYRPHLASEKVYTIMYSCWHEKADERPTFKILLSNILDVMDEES
Sequence of AMPK(α2) (P54646 whole entry, looked up): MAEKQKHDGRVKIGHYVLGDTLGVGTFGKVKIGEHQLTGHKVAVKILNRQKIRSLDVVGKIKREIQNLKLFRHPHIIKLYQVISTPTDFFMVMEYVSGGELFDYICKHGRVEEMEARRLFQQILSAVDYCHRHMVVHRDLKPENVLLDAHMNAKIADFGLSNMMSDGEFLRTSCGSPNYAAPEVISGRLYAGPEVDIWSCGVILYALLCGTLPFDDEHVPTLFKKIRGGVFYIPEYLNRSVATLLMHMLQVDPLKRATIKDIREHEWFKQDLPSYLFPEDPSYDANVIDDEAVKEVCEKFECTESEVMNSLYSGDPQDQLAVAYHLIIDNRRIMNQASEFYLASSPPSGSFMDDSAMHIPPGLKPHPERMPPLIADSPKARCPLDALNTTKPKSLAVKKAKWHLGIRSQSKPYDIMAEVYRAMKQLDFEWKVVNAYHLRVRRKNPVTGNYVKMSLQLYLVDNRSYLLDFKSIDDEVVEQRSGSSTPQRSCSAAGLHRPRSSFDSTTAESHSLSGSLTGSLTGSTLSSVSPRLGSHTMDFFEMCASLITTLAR
Sequence of AMPK(α2) (Q9Y478 whole entry partner, looked up): as the sequence (Q9Y478 whole entry partner, looked up) above
Sequence of AMPK(α2) (P54619 whole entry partner, looked up): as the sequence (P54619 whole entry partner, looked up) above
Sequence of KDR (P35968 20-1356): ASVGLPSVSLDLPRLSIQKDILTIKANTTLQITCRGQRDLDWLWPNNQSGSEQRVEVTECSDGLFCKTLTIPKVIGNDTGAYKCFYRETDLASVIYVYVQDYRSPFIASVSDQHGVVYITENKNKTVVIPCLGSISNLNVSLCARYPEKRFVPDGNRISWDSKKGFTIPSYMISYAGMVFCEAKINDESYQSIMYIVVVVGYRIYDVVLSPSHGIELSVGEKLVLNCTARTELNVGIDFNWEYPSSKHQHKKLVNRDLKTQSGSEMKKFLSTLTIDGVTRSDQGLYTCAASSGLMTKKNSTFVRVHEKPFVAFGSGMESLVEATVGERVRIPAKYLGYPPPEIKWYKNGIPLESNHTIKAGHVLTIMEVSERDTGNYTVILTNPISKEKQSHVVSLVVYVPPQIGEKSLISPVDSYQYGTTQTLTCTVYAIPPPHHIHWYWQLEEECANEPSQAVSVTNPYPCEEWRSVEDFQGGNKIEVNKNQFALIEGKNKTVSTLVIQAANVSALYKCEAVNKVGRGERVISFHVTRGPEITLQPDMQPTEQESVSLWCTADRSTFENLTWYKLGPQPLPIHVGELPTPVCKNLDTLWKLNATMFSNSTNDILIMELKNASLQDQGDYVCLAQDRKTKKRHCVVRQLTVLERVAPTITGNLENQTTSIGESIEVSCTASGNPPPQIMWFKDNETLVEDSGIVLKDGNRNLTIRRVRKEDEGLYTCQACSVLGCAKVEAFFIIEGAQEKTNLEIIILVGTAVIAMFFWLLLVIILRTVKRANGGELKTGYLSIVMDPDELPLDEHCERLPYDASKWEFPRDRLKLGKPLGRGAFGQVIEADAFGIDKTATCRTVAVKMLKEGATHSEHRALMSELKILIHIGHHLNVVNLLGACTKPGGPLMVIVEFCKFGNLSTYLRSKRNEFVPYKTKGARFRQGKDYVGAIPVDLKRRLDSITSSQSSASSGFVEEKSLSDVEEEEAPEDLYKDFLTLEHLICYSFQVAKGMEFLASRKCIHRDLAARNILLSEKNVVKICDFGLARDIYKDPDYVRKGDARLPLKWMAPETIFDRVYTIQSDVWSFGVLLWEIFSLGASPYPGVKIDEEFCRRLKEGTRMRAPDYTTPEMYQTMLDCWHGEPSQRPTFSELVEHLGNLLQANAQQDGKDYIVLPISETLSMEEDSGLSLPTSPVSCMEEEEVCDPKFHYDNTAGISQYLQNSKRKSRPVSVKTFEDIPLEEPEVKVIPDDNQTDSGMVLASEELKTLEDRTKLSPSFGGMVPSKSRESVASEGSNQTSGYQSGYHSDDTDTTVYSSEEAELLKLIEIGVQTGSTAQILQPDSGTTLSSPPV

EC50 [1]: 6.79 ± 0.15 µM
AMPK(α1) % inhibition at 20 μM ([2]; at 20 μM): 40%
EC50 [3]: 11.8 ± 0.78 µM
AMPK(α2) % inhibition at 10 μM ([6]; at 10 μM): 17%
Compound: CCN(CC)CCNC(=O)c1c(C)[nH]c(/C=C2\C(=O)N(C)c3ccc(F)cc32)c1C [Compound No. 1, (Z)—N-(2-(Diethylamino)ethyl)-5-((5-fluoro-1-methyl-2-oxoindolin-3-ylidene)methyl)-2,4-dimethyl-1H-pyrrole-3-carboxamide]
EC50 ([4]; read-out: EC50 CellTox Green 24 h, 24 h): 12.1 ± 0.91 µM
EC50 [4, 11]: 6.91 ± 0.06 µM
Relative p-ACC(Ser79) level [5]: 97.1 % of control

EC50 [1]: 14.8 ± 0.22 µM
IC50 ([2]; mean±S.D. (n=3), ATP 8 μM, read-out: IC50 (nM) AMPK(α1)): 164 ± 10 nM
EC50 [3]: 17.8 ± 0.78 µM
IC50 [7]: 1330 ± 140 nM
IC50 ([6]; mean±S.D. (n=3), ATP 20 μM): 32.4 ± 7.8 nM
Compound: CCN(CC)CCNC(=O)c1c(C)[nH]c(/C=C2\C(=O)Nc3ccc(CCC#N)cc32)c1C [Compound No. 15, (Z)-5-((5-(2-cyanoethyl)-2-oxoindolin-3-ylidene)methyl)-N-(2-(diethylamino)ethyl)-2,4-dimethyl-1H-pyrrole-3-carboxamide]
EC50 [4, 11]: 13.6 ± 1.07 µM
Relative p-ACC(Ser79) level [5]: 34.1 % of control

Compound: CNC(=O)c1ccccc1Oc1nc(Nc2cc(OC)c(OC)c(OC)c2)ncc1Br [SBI-0206965]
IC50 [8]: 400 nM

inhibition at 0.1 µM [9]: 49%
BTK inhibition, in words ([10]; 100 nM): strongly inhibited
inhibition at 0.1 µM ([10]; read-out: Percentage inhibition at 100 nM, BTK): 91.3%
Compound: CCN(CC)CCNC(=O)c1c(C)[nH]c(/C=C2\C(=O)Nc3ccc(F)cc32)c1C [Sunitinib, (Z)—N-(2-(Diethylamino)ethyl)-5-((5-fluoro-2-oxoindolin-3-ylidene)methyl)-2,4-dimethyl-1H-pyrrole-3-carboxamide, reference compound]
CellTox Green 24 h % inhibition at 50 μM ([4]; 24 h, at 50 μM): 61% at 50 μM
